US20030187067A1, “Use of anethole-dithiolethione for preventing and treating drug-induced tendon toxicity” (priority 2000, published 2003)

System: immortalised tenocytes, known as TENO (Teno Cell Line)
Test: type II MIFALC (Microtitration Fluorimetric Assay on Living Cells) test, H2DCF-DA fluorescence, tendon toxicity of fluoroquinolones/statins
Assay type: cell-based
Details: pretreatment with anethole-dithiolethione 20 μM, 72 hours before contact with the xenobiotics; free radicals by H2DCF-DA fluorescence read after 40 minutes
Procedure: The test carried out is a type II MIFALC (Microtitration Fluorimetric Assay on Living Cells) test, that is to say that all of the steps, including detection/disclosure, are carried out on living cells, the test using fluorimetric detection under cold light, in order to achieve the maximum level of detection sensitivity and specificity necessary for the intracellular studies. The tests are carried out on a line of immortalised tenocytes, known as TENO (Teno Cell Line).
The cultures are produced in […] flasks for cell multiplication and in plates having 96 shallow wells for culture.
The tenocytes are placed in suspension with a small amount of trypsin. When the cells are released, the action of the trypsin is blocked by the addition of culture medium containing fetal calf serum. After centrifuging, the residue is taken up by complete medium HAM F-12, then the cells are counted using a Malassez or Thoma hemocytometer. Next, a solution of 27,500 cells/ml is prepared in the complete culture medium and 200 μl are placed in each of the central 60 wells of the microplates having 96 wells. Therefore, there are 5,500 cells per well. The plates are placed in incubation at 37° C. in a humid atmosphere of air/CO2 (95%/5%). The test is carried out after 48 hours when the cells adhere to the support. […]
The fluorescence units are read after 40 minutes.

Compound: COc1ccc(-c2cc(=S)ss2)cc1 [anethole-dithiolethione]
- protection against tendon toxicity (cytotoxic effect) of fluoroquinolones in cellular tenocyte model: protects against this tendon toxicity
